Data on ten compounds can be found in the OPERA property sets (Mansouri et al. 2018).

In turn, `OCCCC(F)(F)F` registered a logP of 0.9. The result for `CC(CO)CC(F)(F)F` (stereo not given) reads 1.39; that for `CCC(O)CCC(F)(F)F` (stereo not given), 1.7.

For the compound `OCCC(F)(F)F`, the log partition coefficient (logP) was 0.39. With `CC(CCO)C(F)(F)F` (stereo not given) the figure was 1.37; with `OCCCCC(F)(F)F`, 1.15; with `CC(C)(O)C(F)(F)F`, 1.04. With `OCCCCCC(F)(F)F` the figure was 1.64.

Compound `CC(O)CC(F)(F)F` (stereo not given) displayed a log partition coefficient (logP) of 0.71. With `CC(CCO)CC(F)(F)F` (stereo not given) the figure was 1.61.

For orientation: logP means a log measure of how a compound divides between an organic and an aqueous phase.
